# Assay results: PubChem BioAssay (NCI)
# Several values for one entry are separate records, joined by “and”; a condition that tells them apart may be missing. Equal values may be shown once.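 Step 1: Grow cells in 96-well plates. Step 2: Expose to compound for 48 hours at 5 concentrations. Step 3: Interpolate endpoints linearly; if unreached, use highest concentration. GI50 is the concentration that inhibits growth by half. TGI: total growth inhibition.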
# What was measured:
# Assay in all cases: NCI-60 cell line screen, 48 h
# SNB-75 CNS = test system: SNB-75 CNS
# OVCAR-4 ovarian = test system: OVCAR-4 ovarian
# MALME-3M melanoma = test system: MALME-3M melanoma
# SK-MEL-28 melanoma = test system: SK-MEL-28 melanoma
# NCI-H226 lung = test system: NCI-H226 lung
# RPMI-8226 leukemia = test system: RPMI-8226 leukemia
# LOX IMVI melanoma = test system: LOX IMVI melanoma
# K-562 leukemia = test system: K-562 leukemia
# UO-31 renal = test system: UO-31 renal
# SF-268 CNS = test system: SF-268 CNS
Compound,GI50 (SNB-75 CNS),TGI (SNB-75 CNS),GI50 (OVCAR-4 ovarian),TGI (OVCAR-4 ovarian),GI50 (MALME-3M melanoma),TGI (MALME-3M melanoma),GI50 (SK-MEL-28 melanoma),TGI (SK-MEL-28 melanoma),GI50 (NCI-H226 lung),TGI (NCI-H226 lung),GI50 (RPMI-8226 leukemia) [µM],TGI (RPMI-8226 leukemia),GI50 (LOX IMVI melanoma) [µM],TGI (LOX IMVI melanoma) [µM],GI50 (K-562 leukemia) [µM],TGI (K-562 leukemia),GI50 (UO-31 renal),TGI (UO-31 renal),GI50 (SF-268 CNS) [µM],TGI (SF-268 CNS)
CCC[CH2][Sn]1([CH2]CCC)[O]CC(CN2CCOCC2)[O]1 (stereo not given),2.16 µM,7.05 µM,11.2 µM,23.4 µM,1.62 µM,5.64 µM,2.89 µM,11.3 µM,20.2 µM,34.8 µM,1.44,4.7 µM,2.02,5.7,2.43,9.16 µM,10.1 µM,21.7 µM,1.79,5.52 µM
OCC1OC(n2cnc3c2NC=NC[C@H]3O)CC1O (stereo not given in full),> 588 µM,498 µM and > 588 µM,> 588 µM,500 µM and > 588 µM,> 588 µM,471 µM and > 588 µM,> 588 µM,500 µM and > 588 µM,> 588 µM,500 µM and > 588 µM,> 588,500 µM and > 588 µM,,500,> 588,474 µM and > 588 µM,> 588 µM,500 µM and > 588 µM,> 588,500 µM and > 588 µM
COc1ccc(C(=O)CC(=O)C(=O)Nc2ccc(C)c(C)c2)cc1,,94.6 µM,,> 100 µM,,> 100 µM,,> 100 µM,,> 100 µM,,> 68 µM,,> 55.7,,> 87 µM,,> 100 µM,,> 100 µM
Cc1nn(-c2ccccc2)c2nc3c(nc12)C1=NCCN1C(c1ccc(Cl)cc1)N3 (stereo not given),1.62 µM,6.25 µM,7.1 µM,20.9 µM,2.18 µM,4.12 µM,1.78 µM,3.37 µM,5.04 µM,14.4 µM,2.22,5.28 µM,1.94,3.91,2.42,6.19 µM,7.84 µM,21.5 µM,5.61,17.6 µM
COc1cc(C2CC(c3ccccc3)=NN2C(C)=O)cc(OC)c1OC (stereo not given),1.74 µM,13.3 µM,11.7 µM,> 100 µM,13 µM,> 100 µM,6.48 µM,> 100 µM,6.8 µM,> 100 µM,2.56,> 27.7 µM,6.38,> 100,2.77,> 100 µM,7.09 µM,> 100 µM,5.37,> 100 µM
COC(=O)C(Cc1ccccc1)NC(=O)Cn1ccnc1[N+](=O)[O-] (stereo not given),,> 100 µM,,> 100 µM,,> 100 µM,,> 100 µM,,> 100 µM,,> 100 µM,,> 100,,> 100 µM,,> 100 µM,,> 100 µM
O=C(c1nc2ccc(Cl)cc2[nH]c1=O)C(O)c1ccc2c(c1)OCO2 (stereo not given),,> 100 µM,,> 100 µM,,> 100 µM,,> 100 µM,,> 100 µM,,> 100 µM,,> 100,,> 100 µM,,> 100 µM,,> 100 µM
CC(C)NC(=O)OCc1c(COC(=O)NC(C)C)c(-c2ccc(Cl)c(Cl)c2)n2c1CCC2,,61.7 µM,,> 78.8 µM,,70.8 µM,,75.1 µM,,47.4 µM,,73.3 µM,,66.6,,77.1 µM,,63.5 µM,,67.6 µM
N=c1n(Cc2ccccc2)c(N)cc(=O)n1Cc1ccccc1,3.08 µM,16.1 µM,2.41 µM,10.5 µM,2.94 µM,6.87 µM,3.58 µM,11.7 µM,3.45 µM,9.56 µM,3.58,18.1 µM,3.14,10.9,3.82,> 100 µM,2.35 µM,5.37 µM,1.37,3.86 µM
CCn1c(-c2nonc2N)nc2cncc(C(=O)NCCNC)c21,0.246 µM,6.61 µM,> 22.8 µM,> 25 µM,5.7 µM,> 25 µM,12.9 µM,> 25 µM,0.454 µM,> 25 µM,> 25,> 25 µM,> 25,> 25,> 25,> 25 µM,0.684 µM,5.77 µM,7.78,> 25 µM
COc1ccc2c(c1)/C(=C\c1c(Cl)n(C)c3ccccc13)C(=O)N2,1.67 µM,23.6 µM,7.07 µM,> 100 µM,4.59 µM,16.7 µM,13.5 µM,> 55.4 µM,2.19 µM,19.5 µM,1.76,> 34.3 µM,0.83,> 100,3.71,> 100 µM,3.71 µM,20.6 µM,2.87,35.1 µM
O=C(Cc1ccccc1)NC(c1ccc(Cl)cc1)c1c(O)ccc2ccccc12 (stereo not given),2.22 µM,12.4 µM,2.73 µM,10.2 µM,2.69 µM,8.22 µM,3.16 µM,11.6 µM,3.15 µM,12 µM,2.84,8.36 µM,3.11,9.71,3.1,26.3 µM,2.41 µM,8.93 µM,4.25,16 µM
CCN(CC)CCCC(Cc1ccccc1)Nc1c2ccc(Cl)cc2nc2ccc(OC)cc12 (stereo not given),1.62 µM,3.65 µM,2.15 µM,6.2 µM,2.02 µM,3.6 µM,1.84 µM,3.59 µM,3.63 µM,14.5 µM,2.08,5.26 µM,1.6,3.04,1.07,2.89 µM,1.35 µM,2.69 µM,2.14,5.84 µM
CCOC(=O)c1c(Cl)c2c(n1Cc1cccc(OC)c1)-c1oncc1CC2,1.61 µM,5.35 µM,6.46 µM,> 100 µM,0.646 µM,96.2 µM,4.89 µM,> 100 µM,6.82 µM,> 100 µM,5.15,> 100 µM,2.51,> 100,0.397,> 100 µM,3.37 µM,78.6 µM,9.31,> 100 µM
COc1ccc(C(=O)C(C(=O)C(=O)NC2C3CC4CC(C3)CC2C4)c2ccc(OC)cc2)cc1 (stereo not given),,> 100 µM,,> 100 µM,,> 100 µM,,> 100 µM,,> 100 µM,,> 100 µM,,> 100,,> 100 µM,,> 100 µM,,> 100 µM
O=NN/C(=C1\Nc2ccc([N+](=O)[O-])cc2NC1=O)C(O)c1ccc([N+](=O)[O-])cc1 (stereo not given),,> 100 µM,,> 100 µM,,> 100 µM,,> 100 µM,,> 100 µM,,> 100 µM,,> 100,,> 100 µM,,> 100 µM,,> 100 µM
O=C(O)c1ccccc1-c1ccccc1C(=O)Nc1ccc2c(c1)[nH]c(=O)c1ccccc12,,> 100 µM,,> 100 µM,,> 100 µM,,> 100 µM,,> 100 µM,,> 100 µM,,> 100,,> 100 µM,,> 100 µM,,> 100 µM
CN(C)C1=NC2=S(SC(Nc3ccccc3)=N2)S1 (stereo not given),,60.6 µM,,> 100 µM,,46.5 µM,,56.2 µM,,> 100 µM,,57.1 µM,,> 100,,> 100 µM,,61.1 µM,,> 100 µM
COc1ccc(-c2nn(-c3cccc(NC(=O)c4cccc(C(F)(F)F)c4)c3)cc2-c2ccncc2)cc1Cl,1.17 µM,4.07 µM,6.24 µM,> 100 µM,1.46 µM,> 100 µM,3.07 µM,36 µM,4.92 µM,> 100 µM,2.5,49 µM,3.08,27.2,0.837,> 100 µM,2.85 µM,> 100 µM,4.08,> 100 µM
O=C(O)CP(=O)(O)O,,> 100 µM,,> 100 µM,,> 100 µM,,> 100 µM,,> 100 µM,,> 100 µM,,> 100,,> 100 µM,,> 100 µM,,> 100 µM
NC1=CC(=O)c2nc3ccccc3c3ccnc1c23,0.552 µM,23.5 µM,7.7 µM,> 59 µM,0.0856 µM,0.556 µM,11.8 µM,32 µM,0.937 µM,> 32.6 µM,5.18,> 100 µM,0.219,4.22,4.26,> 100 µM,3.49 µM,> 56.4 µM,4.26,22.1 µM
CCCc1nc(NC#N)nc(C(=O)NC23CC4CC(CC(C4)C2)C3)c1C,,> 100 µM,,> 100 µM,,> 100 µM,,> 100 µM,,> 100 µM,,> 100 µM,,> 100,,> 100 µM,,> 100 µM,,> 100 µM
CSc1nc(C)c(Br)c(=O)n1C1OC(COC(C)=O)C(OC(C)=O)C(OC(C)=O)C1OC(C)=O (stereo not given),10.5 µM and 26.5 µM,51.8 µM and 65.1 µM,> 100 µM and 20.5 µM,> 100 µM and 52.2 µM,> 100 µM and 33.4 µM,> 100 µM and 70.4 µM,> 100 µM and 21 µM,> 100 µM and 57 µM,> 100 µM and 36 µM,> 100 µM,,> 100 µM,,> 100,,> 100 µM,> 100 µM and 44.9 µM,> 100 µM,,> 100 µM and 44.2 µM
CC1OC(n2c3ccccc3c3c4c(c5c6ccccc6[nH]c5c32)C(=O)N(CCN2CCOCC2)C4=O)CC(O)C1O (stereo not given),0.729 µM,5.87 µM,4.03 µM,14.1 µM,4.54 µM,12.8 µM,5.61 µM,13.8 µM,2.2 µM,9.87 µM,2.97,20.7 µM,0.962,6.12,1.85,50 µM,1.96 µM,10.8 µM,1.66,9.65 µM
COc1ccccc1C(N)c1ccccc1 (stereo not given),,> 100 µM,,> 100 µM,,> 100 µM,,> 100 µM,,> 100 µM,,> 100 µM,,> 100,,> 100 µM,,> 100 µM,,> 100 µM
CC1(C)N=C(N)N=C(N)N1c1cccc(CCCCOc2ccccc2)c1,0.195 µM,22.9 µM,0.441 µM,38.6 µM,7.22 µM,29.8 µM,0.521 µM,20.6 µM,0.801 µM,> 100 µM,0.0601,13.6 µM,0.0395,14.7,0.05,> 100 µM,47.2 µM,> 100 µM,0.0558,22.9 µM
OCC1OC2OC3C(CO)OC(OC4C(CO)OC(OC5C(CO)OC(OC6C(CO)OC(OC7C(CO)OC(OC1C(O)C2O)C(O)C7O)C(O)C6O)C(O)C5O)C(O)C4O)C(O)C3O (stereo not given) (tested in a mixture with another compound),,> 100 µM,,> 100 µM,,> 100 µM,,> 100 µM,,> 100 µM,,> 100 µM,,> 100,,> 100 µM,,> 100 µM,,> 100 µM
H-HIIKKIRTWYRKAWHVLGKV-NH2,11.9 µM,30.4 µM,12.8 µM,47.5 µM,2.29 µM,5.25 µM,2.61 µM,7.66 µM,4.15 µM,39.2 µM,8.62,45 µM,21.7,82.3,6.56,> 100 µM,18.6 µM,36.5 µM,3.43,19.8 µM
C=CC[C@@H]1/C=C(\C)C[C@H](C)C[C@H](OC)[C@H]2O[C@@](O)(C(=O)C(=O)N3CCCC[C@H]3C(=O)O[C@H](/C(C)=C/C3CC[C@@H](O)[C@H](OC)C3)[C@H](C)[C@@H](O)CC1=O)[C@H](C)C[C@@H]2OC (stereo not given in full),12.3 µM,25.1 µM,13.9 µM,27.2 µM,14.6 µM,32.1 µM,15.2 µM,29.2 µM,15.3 µM,30.1 µM,8.59,32.2 µM,15,29.7,18.7,52 µM,12.8 µM,26.4 µM,13.8,27.3 µM
